Laboratory results: PubChem BioAssay (NCI)
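GI50 = concentration required for 50% inhibition of growth. TGI: total growth inhibition.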

Legend:
Test in all cases: NCI anticancer screen, dose series, 384-well format
[1] = system: 786-0 renal
[2] = system: A498 renal
[3] = system: A549 NSCLC
[4] = system: ACHN renal
[5] = system: BT-549 breast
[6] = system: CAKI-1 renal
[7] = system: CCRF-CEM leukemia
[8] = system: COLO 205 colon
[9] = system: DU-145 prostate
[10] = system: EKVX NSCLC
[11] = system: HCC-2998 colon
[12] = system: HCT-15 colon
[13] = system: HL-60(TB) leukemia
[14] = system: HOP-62 NSCLC
[15] = system: HOP-92 NSCLC
[16] = system: HS 578T breast
[17] = system: HT29 colon
[18] = system: IGROV1 ovarian
[19] = system: K-562 leukemia
[20] = system: KM12 colon
[21] = system: LOX IMVI melanoma
[22] = system: M14 melanoma
[23] = system: MALME-3M melanoma
[24] = system: MCF7 breast
[25] = system: MDA-MB-231 breast
[26] = system: MDA-MB-435 melanoma
[27] = system: MDA-MB-468 breast
[28] = system: MOLT-4 leukemia
[29] = system: NCI-H226 lung
[30] = system: NCI-H23 lung
[31] = system: NCI-H322M lung
[32] = system: NCI-H460 NSCLC
[33] = system: NCI-H522 lung
[34] = system: NCI/ADR-RES ovarian
[35] = system: OVCAR-3 ovarian
[36] = system: OVCAR-4 ovarian
[37] = system: OVCAR-5 ovarian
[38] = system: OVCAR-8 ovarian
[39] = system: PC-3 prostate
[40] = system: RPMI-8226 leukemia
[41] = system: RXF 393 renal
[42] = system: SF-268 CNS
[43] = system: SF-295 CNS
[44] = system: SF-539 CNS
[45] = system: SK-MEL-28 melanoma
[46] = system: SK-MEL-5 melanoma
[47] = system: SK-OV-3 ovarian
[48] = system: SN12C renal
[49] = system: SNB-19 CNS
[50] = system: SNB-75 CNS
[51] = system: SR leukemia
[52] = system: SW-620 colon
[53] = system: T-47D breast
[54] = system: TK-10 renal
[55] = system: UACC-257 melanoma
[56] = system: UACC-62 melanoma
[57] = system: UO-31 renal

Compound: C[C@@H](CO)NC(=O)c1cc(-c2ccc(Cl)cc2)nn(-c2cnn(C)c2)c1=O
- GI50 [1]: 17.1 µM
- TGI [1]: 61.3 µM
- GI50 [2]: 14.4 µM
- TGI [2]: 28.7 µM
- GI50 [3]: 17.7 µM
- TGI [3]: 37.5 µM
- GI50 [4]: 15.5 µM
- TGI [4]: 35.4 µM
- GI50 [5]: 16.1 µM
- TGI [5]: 33.8 µM
- GI50 [6]: 17.7 µM
- TGI [6]: 49.2 µM
- GI50 [7]: 13.4 µM
- TGI [7]: 29.7 µM
- GI50 [8]: 23.7 µM
- TGI [8]: 87.2 µM
- GI50 [9]: 16.9 µM
- TGI [9]: 36 µM
- GI50 [10]: 27.3 µM
- TGI [10]: 77.9 µM
- GI50 [11]: 23.5 µM
- TGI [11]: 53.4 µM
- GI50 [12]: 27.1 µM
- TGI [12]: > 100 µM
- GI50 [13]: 16.5 µM
- TGI [13]: 30.1 µM
- GI50 [14]: 17 µM
- TGI [14]: 40 µM
- GI50 [15]: 10.2 µM
- TGI [15]: 43.7 µM
- GI50 [16]: 17.2 µM
- TGI [16]: 36.9 µM
- GI50 [17]: 25.9 µM
- TGI [17]: > 100 µM
- GI50 [18]: 18.3 µM
- TGI [18]: 42.4 µM
- GI50 [19]: 18.5 µM
- TGI [19]: 34.3 µM
- GI50 [20]: 35.2 µM
- TGI [20]: > 100 µM
- GI50 [21]: 17.1 µM
- TGI [21]: 30.9 µM
- GI50 [22]: 27.1 µM
- TGI [22]: 60.5 µM
- GI50 [23]: 13.4 µM
- TGI [23]: 34.1 µM
- GI50 [24]: 15.8 µM
- TGI [24]: 29.4 µM
- GI50 [25]: 30 µM
- TGI [25]: > 100 µM
- GI50 [26]: 27.7 µM
- TGI [26]: 80.1 µM
- GI50 [27]: 16.7 µM
- TGI [27]: 32 µM
- GI50 [28]: 1.87 µM
- TGI [28]: 3.63 µM
- GI50 [29]: 16.8 µM
- TGI [29]: 35 µM
- GI50 [30]: 24.8 µM
- TGI [30]: 60.7 µM
- GI50 [31]: 23.5 µM
- TGI [31]: 64 µM
- GI50 [32]: 13.8 µM
- TGI [32]: 33.4 µM
- GI50 [33]: 16.9 µM
- TGI [33]: 31.2 µM
- GI50 [34]: 19.3 µM
- TGI [34]: 44.4 µM
- GI50 [35]: 22.6 µM
- TGI [35]: 50.7 µM
- GI50 [36]: 25.5 µM
- TGI [36]: 69.6 µM
- GI50 [37]: 32.2 µM
- TGI [37]: > 100 µM
- GI50 [38]: 23.7 µM
- TGI [38]: 95.9 µM
- GI50 [39]: 24.4 µM
- TGI [39]: 62.7 µM
- GI50 [40]: 13.8 µM
- TGI [40]: 27 µM
- GI50 [41]: 15.2 µM
- TGI [41]: 53.4 µM
- GI50 [42]: 22.6 µM
- TGI [42]: 70.7 µM
- GI50 [43]: 18.5 µM
- TGI [43]: 41.2 µM
- GI50 [44]: 19.4 µM
- TGI [44]: 51.7 µM
- GI50 [45]: 21.9 µM
- TGI [45]: 49.7 µM
- GI50 [46]: 12.6 µM
- TGI [46]: 25.3 µM
- GI50 [47]: 27.3 µM
- TGI [47]: 72.7 µM
- GI50 [48]: 24.3 µM
- TGI [48]: 78.6 µM
- GI50 [49]: 27.8 µM
- TGI [49]: 88.5 µM
- GI50 [50]: 25.8 µM
- TGI [50]: 93.1 µM
- GI50 [51]: 10.7 µM
- TGI [51]: 22.7 µM
- GI50 [52]: 38.8 µM
- TGI [52]: > 100 µM
- GI50 [53]: 26.9 µM
- TGI [53]: 67.9 µM
- GI50 [54]: 16.7 µM
- TGI [54]: 63.3 µM
- GI50 [55]: 24.9 µM
- TGI [55]: 40.1 µM
- GI50 [56]: 11.5 µM
- TGI [56]: 23.7 µM
- GI50 [57]: 27.1 µM
- TGI [57]: > 100 µM
